Measurements published in paper PMC11094307, “Marine-derived EGFR inhibitors: novel compounds targeting breast cancer growth and drug resistance” (Frontiers in Pharmacology, 2024).

Test system: MCF-7 cells
Assay: Annexin V-FITC/PI apoptosis analysis
Type: cell-based, human
Conditions: 24 h
Experimental: Apoptosis was evaluated using the Annexin V-FITC/PI Apoptosis Detection Kit (Vazyme). The harvested MCF-7 cells were first resuspended in 1× binding buffer from the kit to achieve a final concentration of 1×10^6 cells/ml. Next, 100 μL of the cell suspension, 5 μL of Annexin V, and 10 μL of PI were mixed and incubated in the dark for 15 min. Subsequently, 400 μL of 1× binding buffer was added to the mixture in preparation for apoptosis analysis.

## COC(=O)C/C(C)=C/C(=O)O[C@@H]1C[C@@H](C)[C@H]2[C@@H](C=C[C@H](CC(C)C)[C@]2(C)C(=O)/C=C\O)[C@@H]1O [Tandyukisin]
5 μM
  apoptosis ratio (lower right quadrant, early apoptosis: PI negative, annexin V-FITC positive): 12.10%
10 μM
  apoptosis ratio (lower right quadrant, early apoptosis: PI negative, annexin V-FITC positive): 14.37%
20 μM
  apoptosis ratio (lower right quadrant, early apoptosis: PI negative, annexin V-FITC positive): 19.24%
